Source: ChEMBL document CHEMBL4828747, “Structure-Activity Relationships of Withanolides as Antiproliferative Agents for Multiple Myeloma: Comparison of Activity in 2D Models and a 3D Coculture Model” (J Nat Prod, 2021)

Experiments:
RPMI-8226 [1] = test: Antiproliferative activity against human RPMI-8226 cells cultured as 3D-spheroids assessed as reduction in cell viability after 48 hrs by Celltiter-Glo assay; format: functional, cell-based; settings: RPMI-8226, 48 h
[2] = Antiproliferative activity against human MM1.R cells assessed as reduction in cell viability incubated for 72 hrs by XTT assay; format: functional, cell-based; settings: MM.1R
RPMI-8226 [3] = test: Antiproliferative activity against human RPMI 8226 cells assessed as reduction in cell viability incubated for 72 hrs by XTT assay; format: functional, cell-based; settings: RPMI-8226, 72 h
MM1.S = test: Antiproliferative activity against human MM1.S cells assessed as reduction in cell viability incubated for 72 hrs by XTT assay; format: functional, cell-based
[4] = Stability in human RPMI 8226 cells medium measured upto 72 hrs by HPLC analysis; format: ADME, cell-based; settings: rpmi-8226, 72 h

| IC50 (RPMI-8226 [1]) [nM] | IC50 (RPMI-8226 [3]) [nM] | IC50 (MM1.S) [nM] | Stability [4] | Compound | IC50 [2] [nM] |
| --- | --- | --- | --- | --- | --- |
| 1390 | 203 | 97 |  | CC(=O)O[C@H]1C=CC(=O)[C@]2(C)[C@H]3CC[C@]4(C)[C@@H]([C@H](C)[C@H]5CC(C)=C(CO)C(=O)O5)CC[C@H]4[C@@H]3C[C@H]3O[C@]132 | 129 |
|  | 777 |  |  | CC(=O)OCC1=C(C)C[C@H]([C@@H](C)[C@H]2CC[C@H]3[C@@H]4C[C@H]5O[C@]56C(=O)C=CC(=O)[C@]6(C)[C@H]4CC[C@]23C)OC1=O |  |
| > 40000 | 276 | 750 |  | CC1=C(C)C(=O)O[C@@H]([C@](C)(O)[C@H]2CC[C@H]3[C@@H]4C[C@H]5O[C@]56C(=O)C=CC(=O)[C@]6(C)[C@H]4CC[C@]23C)C1 | 858 |
|  | 889 |  |  | CC1=C(CO)C(=O)O[C@@H]([C@@H](C)[C@H]2CC[C@H]3[C@@H]4C[C@H](I)[C@]5(O)[C@@H](O)C=CC(=O)[C@]5(C)[C@H]4CC[C@]23C)C1 |  |
| 9930 | 458 | 246 |  | CC(=O)OCC1=C(C)C[C@H]([C@@H](C)[C@H]2CC[C@H]3[C@@H]4CC=C5C(=O)C=CC(=O)[C@]5(C)[C@H]4CC[C@]23C)OC1=O | 236 |
| 820 | 252 | 206 |  | CC(=O)O[C@H]1C=CC(=O)[C@]2(C)[C@H]3CC[C@]4(C)[C@@H]([C@@](C)(O)[C@H]5CC(C)=C(C)C(=O)O5)CC[C@H]4[C@@H]3C[C@H]3O[C@]132 | 350 |
| 1870 | 484 | 55 |  | CC1=C(CO)C(=O)O[C@@H]([C@@H](C)[C@H]2CC[C@H]3[C@@H]4C[C@H]5O[C@]56[C@@H](O)[C@@H](N5CCCCC5)CC(=O)[C@]6(C)[C@H]4CC[C@]23C)C1 | 80 |
|  | 942 |  |  | CC(=O)OCC1=C(C)C[C@H]([C@@H](C)[C@H]2CC[C@H]3[C@@H]4CC=C5C(=O)C=C[C@@H](OC(C)=O)[C@]5(C)[C@H]4CC[C@]23C)OC1=O |  |
|  | 744 |  |  | CC1=C(C)C(=O)O[C@@H]([C@](C)(O)[C@H]2CC[C@H]3[C@@H]4C[C@H]5O[C@]56CC=CC(=O)[C@]6(C)[C@H]4CC[C@]23C)C1 |  |
| 2290 | 122 | 338 |  | CC1C(=O)O[C@@H]([C@](C)(O)C2=CC[C@@]3(O)[C@@H]4C[C@H]5O[C@]56[C@@H](O)C=CC(=O)[C@]6(C)[C@H]4CC[C@]23C)C[C@@H]1C (some centres not stated) | 209 |
|  | 780 |  |  | CC1=C(C)C(=O)O[C@@H]([C@](C)(O)[C@H]2CC[C@H]3[C@@H]4CC=C5C(=O)C=CC(=O)[C@]5(C)[C@H]4CC[C@]23C)C1 |  |
| > 40000 | 506 | 1820 |  | C[C@H]1C[C@H]([C@](C)(O)[C@@]2(O)CC[C@H]3[C@@H]4C[C@H]5O[C@]56[C@@H](O)C=CC(=O)[C@]6(C)[C@H]4CC[C@@]32C)OC(=O)[C@@H]1C | 1090 |
|  | 950 |  |  | CC1=C(C)C(=O)O[C@@H]([C@](C)(O)[C@H]2CC[C@H]3[C@@H]4C[C@H](I)[C@]5(O)C(=O)C=CC(=O)[C@]5(C)[C@H]4CC[C@]23C)C1 |  |
|  | 770 |  |  | CC(=O)OCC1=C(C)C[C@H]([C@@H](C)[C@H]2CC[C@H]3[C@@H]4CC=C5C(O)C=CC(=O)[C@]5(C)[C@H]4CC[C@]23C)OC1=O (some centres not stated) |  |
| 1640 | 301 | 601 |  | CC(=O)O[C@@H]1C=CC(=O)[C@]2(C)[C@H]3CC[C@]4(C)[C@@H]([C@@](C)(O)[C@H]5CC(C)=C(C)C(=O)O5)CC[C@H]4[C@@H]3C[C@H]3O[C@]132 | 522 |
|  | 545 |  |  | CC1=C(C)C(=O)O[C@@H]([C@](C)(O)[C@H]2CC[C@H]3[C@@H]4C[C@H](I)[C@]5(O)[C@@H](O)C=CC(=O)[C@]5(C)[C@H]4CC[C@]23C)C1 |  |
| > 40000 | 252 | 229 |  | CC(=O)OCC1=C(C)C[C@H]([C@@H](C)[C@H]2CC[C@H]3[C@@H]4C[C@H]5O[C@]56[C@@H](O)[C@@H](OC(C)=O)CC(=O)[C@]6(C)[C@H]4CC[C@]23C)OC1=O | 374 |
| 12300 | 451 | 1290 |  | C[C@H]1C(=O)O[C@@H]([C@](C)(O)[C@H]2CC[C@H]3[C@@H]4C[C@H]5O[C@]56[C@@H](O)C=CC(=O)[C@]6(C)[C@H]4CC[C@]23C)C[C@@]1(C)O | 997 |
|  | 609 |  |  | CC1=C(C)C(=O)O[C@@H]([C@](C)(O)[C@H]2[C@@H](O)C[C@H]3[C@@H]4C[C@H](I)[C@]5(O)[C@@H](O)C=CC(=O)[C@]5(C)[C@H]4CC[C@]23C)C1 |  |
| 3420 | 217 | 370 |  | CC(=O)O[C@H]1C=CC(=O)[C@]2(C)[C@H]3CC[C@@]4(C)[C@H]([C@@H]3C[C@H]3O[C@]132)[C@H](OC(C)=O)C[C@@H]4[C@@](C)(O)[C@H]1CC(C)=C(C)C(=O)O1 | 322 |
| 2620 | 270 | 60 |  | CC1=C(CO)C(=O)O[C@@H]([C@@H](C)[C@H]2CC[C@H]3[C@@H]4C[C@H]5O[C@]56[C@@H](O)[C@@H](n5ccnc5)CC(=O)[C@]6(C)[C@H]4CC[C@]23C)C1 | 75 |
| 4650 | 239 | 559 |  | C[C@@H]1[C@@H](C)C(=O)OC12C[C@](C)(O)C1[C@H](C[C@H]3[C@@H]4C[C@H]5O[C@]56[C@@H](O)C=CC(=O)[C@]6(C)[C@H]4CC[C@]13C)O2 (some centres not stated) | 366 |
|  |  |  | Stable | CC1=C(CO[Si](C)(C)C(C)(C)C)C(=O)O[C@@H]([C@@H](C)[C@H]2CC[C@H]3[C@@H]4C[C@H]5O[C@]56[C@@H](O[Si](C)(C)C)C=CC(=O)[C@]6(C)[C@H]4CC[C@]23C)C1 |  |
|  | 768 |  |  | CC1=C(C)C(=O)O[C@@H]([C@](C)(O)[C@H]2CC[C@H]3[C@@H]4CC=C5[C@H](O)C=CC(=O)[C@]5(C)[C@H]4CC[C@]23C)C1 |  |
|  | 601 |  |  | C[C@H]1[C@H]([C@@H](O)[C@](C)(O)[C@H]2[C@@H](O)C[C@H]3[C@@H]4C[C@H]5O[C@]56[C@@H](O)C=CC(=O)[C@]6(C)[C@H]4CC[C@]23C)OC(=O)[C@@H]1C |  |
| 6.4 | 4.7 | 2.5 |  | CC(C)C[C@H](NC(=O)[C@H](Cc1ccccc1)NC(=O)c1cnccn1)B(O)O [BORTEZOMIB] | 2.4 |
| 1600 | 258 | 53 |  | CC1=C(CO)C(=O)O[C@@H]([C@@H](C)[C@H]2CC[C@H]3[C@@H]4C[C@H]5O[C@]56[C@@H](O)C=CC(=O)[C@]6(C)[C@H]4CC[C@]23C)C1 [WITHAFERIN A] | 263 |

| Compound | IC50 (RPMI-8226 [1]) [nM] | IC50 (RPMI-8226 [3]) [nM] | IC50 (MM1.S) [nM] | Stability [4] | IC50 [2] [nM] |
| --- | --- | --- | --- | --- | --- |
| CC(=O)OCC1=C(C)C[C@H]([C@@H](C)[C@H]2CC[C@H]3[C@@H]4C[C@H]5O[C@]56[C@@H](O)C=CC(=O)[C@]6(C)[C@H]4CC[C@]23C)OC1=O | 1510 | 212 | 114 |  | 107 |
| C[C@H]1C[C@H]([C@](C)(O)[C@H]2[C@@H](O)C[C@H]3[C@@H]4C[C@H]5O[C@]56[C@@H](O)C=CC(=O)[C@]6(C)[C@H]4CC[C@]23C)OC(=O)[C@@H]1C | 3230 | 273 | 623 |  | 425 |
| CC1=C(CO)C(=O)O[C@@H]([C@@H](C)[C@H]2CC[C@H]3[C@@H]4C[C@H]5O[C@]56[C@@H](O)[C@@H](OS(=O)(=O)O)CC(=O)[C@]6(C)[C@H]4CC[C@]23C)C1 | 8520 | 218 | 115 |  | 129 |
| CC1=C(C)C(=O)O[C@@H]([C@](C)(O)[C@H]2CC[C@H]3[C@@H]4C[C@H]5O[C@]56C(O)C=CC(=O)[C@]6(C)[C@H]4CC[C@]23C)C1 (some centres not stated) | 1570 | 297 | 441 |  | 372 |
| CC1=C(C)C(=O)O[C@@H]([C@](C)(O)[C@H]2CC[C@H]3[C@@H]4C[C@H]5O[C@]56[C@@H](O)C=CC(=O)[C@]6(C)[C@H]4CC[C@]23C)C1 [WITHANOLIDE D] | 980 | 76 | 107 |  | 106 |
